Measured values reported in ChEMBL document CHEMBL5390242, “Design, Synthesis, and Antitumor Efficacy of Substituted 2-Amino[1,2,4]triazolopyrimidines and Related Heterocycles as Dual Inhibitors for Microtubule Polymerization and Janus Kinase 2” (J Med Chem, 2023).
Active and inactive are the calls of the source. The rule behind the calls is not given here.

Tests used:
[1] = Resistance index, ratio of IC50 for antiproliferative activity against human HCT-8/VCR cells to IC50 for antiproliferative activity against human HCT-8 cells; assay type: functional
[2] = Antiproliferative activity against human HCT-8/VCR cells assessed as cell growth inhibition incubated for 48 hrs by MTT assay; assay type: functional, cell-based
[3] = test system: HCT-8; experiment: Antiproliferative activity against human HCT-8 cells assessed as cell growth inhibition incubated for 48 hrs by MTT assay; assay type: functional, cell-based; settings: HCT-8, 48 h
[4] = target: Tubulin beta (Homo sapiens) (UniProt P68371+Q9H4B7+Q13509+P04350+Q3ZCM7+P07437+Q13885+Q9BVA1+Q9BUF5+A6NNZ2); experiment: Binding affinity to beta-tubulin colchicine binding site in human A549 cells assessed as inhibition of EBI-beta-tubulin adduct band formation at 5 to 25 uM preincubated for 2 hrs followed by EBI addition measured after 1.5 hrs by EBI competition based Western blotting analysis; assay type: cell-based; settings: dose 5-25 µM
[5] = test system: A549; experiment: Antiproliferative activity against human A549 cells assessed as cell growth inhibition incubated for 48 hrs by MTT assay; assay type: functional, cell-based; settings: A549, 48 h
[6] = test system: KP-4; experiment: Antiproliferative activity against human KP-4 cells assessed as cell growth inhibition incubated for 48 hrs by MTT assay; assay type: functional, cell-based; settings: KP-4, 48 h
[7] = test system: BXPC-3; experiment: Antiproliferative activity against human BXPC-3 cells assessed as cell growth inhibition incubated for 48 hrs by MTT assay; assay type: functional, cell-based; settings: BXPC-3, 48 h
[8] = test system: MCF7; experiment: cells; settings: Homo sapiens, MCF7, 48 h
Description: Antiproliferative activity against human MCF7 cells assessed as cell growth inhibition incubated for 48 hrs by MTT assay

[9] = test system: HeLa; experiment: Antiproliferative activity against human HeLa cells assessed as cell growth inhibition incubated for 48 hrs by MTT assay; assay type: functional, cell-based
[10] = target: Tubulin (Sus scrofa, UniProt P02554+P02550); experiment: Inhibition of porcine brain tubulin polymerization measured for 30 mins in presence of GTP by microplate reader assay; assay type: tissue-based
[11] = target: T1, Tyrosine-protein kinase JAK2 (Homo sapiens, UniProt O60674); experiment: Inhibition of JAK2 (unknown origin) using Poly-(Glu,Tyr 4:1) peptide as substrate in presence of ATP by ADP-Glo reagent based assay
[12] = target: T1, Tyrosine-protein kinase JAK2; experiment: Inhibition of JAK2 (unknown origin) using Poly-(Glu,Tyr 4:1) peptide as substrate at 1 uM in presence of ATP by ADP-Glo reagent based assay relative to control
[13] = test system: A2780/Taxol; experiment: Antiproliferative activity against human A2780T cells assessed as cell growth inhibition incubated for 48 hrs by MTT assay; assay type: functional, cell-based

T1 sequence (O60674 whole entry): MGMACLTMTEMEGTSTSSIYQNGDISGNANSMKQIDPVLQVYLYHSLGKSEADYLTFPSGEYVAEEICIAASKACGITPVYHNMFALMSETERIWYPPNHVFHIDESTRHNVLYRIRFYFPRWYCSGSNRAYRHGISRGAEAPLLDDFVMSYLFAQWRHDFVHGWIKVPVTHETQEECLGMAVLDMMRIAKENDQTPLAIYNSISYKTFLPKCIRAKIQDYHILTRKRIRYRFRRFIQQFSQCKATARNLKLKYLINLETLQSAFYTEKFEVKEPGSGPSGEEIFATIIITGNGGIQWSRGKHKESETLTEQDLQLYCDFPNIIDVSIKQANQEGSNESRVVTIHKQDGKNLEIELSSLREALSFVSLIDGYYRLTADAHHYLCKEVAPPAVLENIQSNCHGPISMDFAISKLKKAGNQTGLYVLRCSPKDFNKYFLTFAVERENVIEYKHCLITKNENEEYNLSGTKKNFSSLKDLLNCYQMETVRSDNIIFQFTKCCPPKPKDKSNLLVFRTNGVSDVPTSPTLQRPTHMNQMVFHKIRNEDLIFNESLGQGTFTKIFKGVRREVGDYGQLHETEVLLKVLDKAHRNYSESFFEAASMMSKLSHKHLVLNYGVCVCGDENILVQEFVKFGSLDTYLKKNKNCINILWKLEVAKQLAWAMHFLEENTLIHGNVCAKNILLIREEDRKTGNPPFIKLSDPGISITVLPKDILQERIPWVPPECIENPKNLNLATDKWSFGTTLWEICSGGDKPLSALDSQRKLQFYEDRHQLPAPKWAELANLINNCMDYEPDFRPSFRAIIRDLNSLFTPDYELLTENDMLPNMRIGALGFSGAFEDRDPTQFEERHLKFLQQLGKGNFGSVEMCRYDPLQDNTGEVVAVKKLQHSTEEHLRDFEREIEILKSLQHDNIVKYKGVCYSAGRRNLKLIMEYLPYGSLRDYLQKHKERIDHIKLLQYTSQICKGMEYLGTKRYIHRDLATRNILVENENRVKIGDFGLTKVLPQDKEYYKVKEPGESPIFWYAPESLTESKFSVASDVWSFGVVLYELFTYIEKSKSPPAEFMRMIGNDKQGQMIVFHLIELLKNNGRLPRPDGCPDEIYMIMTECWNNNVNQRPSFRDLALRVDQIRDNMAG

| SMILES | IC50 [3] [nM] | Activity [4] | IC50 [5] [nM] | IC50 [7] [nM] | IC50 [8] [nM] | IC50 [9] [nM] | IC50 [10] [nM] | IC50 [11] [nM] | inhibition [12] [%] | IC50 [13] [nM] | Ratio IC50 [1] | IC50 [2] [nM] | IC50 [6] [nM] |
| --- | --- | --- | --- | --- | --- | --- | --- | --- | --- | --- | --- | --- | --- |
| COc1ccc(Nc2nc3ccnc(-c4cc(OC)c(OC)c(OC)c4)n3n2)cc1N |  |  | 201 | 176 | 189 | 117 | 4200 | 326 | 86 |  |  |  | 1800 |
| COc1cc(-c2nccc3nc(Nc4ccc5c6ccccc6n(C)c5c4)nn23)cc(OC)c1OC |  |  | > 10000 | > 10000 | > 10000 | > 10000 |  |  |  |  |  |  | > 10000 |
| COc1cc(-c2cncc3nc(Nc4cccc5c4ccn5C)nn23)cc(OC)c1OC |  |  | 7150 | 38 | 25 | 59 |  |  |  |  |  |  | 106 |
| CC(=O)O[C@H]1C(=O)[C@@]2(C)[C@H]([C@H](OC(=O)c3ccccc3)[C@]3(O)C[C@H](OC(=O)[C@H](O)[C@@H](NC(=O)c4ccccc4)c4ccccc4)C(C)=C1C3(C)C)[C@]1(OC(C)=O)CO[C@@H]1C[C@@H]2O [PACLITAXEL] |  |  |  | 11 | 7 | 7 |  |  |  | 319 |  |  | 7 |
| COc1cc(Nc2nc3ccnc(-c4cccc5[nH]ccc45)n3n2)cc(OC)c1OC |  |  | 1860 | 692 | 267 | 982 |  |  |  |  |  |  | 714 |
| COCOc1cc(Nc2nc3ccnc(-c4cc(OC)c(OC)c(OC)c4)n3n2)ccc1C |  |  | > 10000 | > 10000 | > 10000 | > 10000 |  |  |  |  |  |  | > 10000 |
| COc1cc(-c2nccc3nc(Nc4ccc5c(ccn5C)c4)nn23)cc(OC)c1OC |  |  | 92 | 40 | 64 | 202 | 15300 | 544 | 77 |  |  |  | 938 |
| COc1cc(-c2cncc3nc(Nc4cccc5[nH]ccc45)nn23)cc(OC)c1OC |  |  | 2530 | 88 | 26 | 41 |  |  |  |  |  |  | 431 |
| COc1cc(-c2nccc3nc(Nc4cccc5[nH]c6ccccc6c45)nn23)cc(OC)c1OC |  |  | > 10000 | > 10000 | > 10000 | > 10000 |  |  |  |  |  |  | > 10000 |
| COc1cc(-c2nccc3nc(Nc4cccc5c4ccn5C)nn23)cc(OC)c1OC |  |  | 13 | 16 | 46 | 29 | 1600 | 705 | 56 |  |  |  | 40 |
| COc1cc(-c2ccnc3nc(Nc4cccc5c4ccn5C)nn23)cc(OC)c1OC |  |  | 13 | 18 | 26 | 80 |  |  |  |  |  |  | 36 |
| COc1cc(-c2nccc3nc(Nc4ccc(C)c(O)c4)nn23)cc(OC)c1OC |  |  | 354 | 355 | 326 | 312 |  |  | 46 |  |  |  | 2180 |
| COc1cc(-c2nccc3nc(Nc4cccc5cc[nH]c45)nn23)cc(OC)c1OC |  |  | 257 | 2410 | 325 | 2580 |  |  | 1.7 |  |  |  | 1200 |
| COc1cc(-c2nccc3nc(Nc4ccc5ccn(C)c5c4)nn23)cc(OC)c1OC |  |  | > 10000 | 630 | 280 | 2170 |  |  | 26 |  |  |  | 7160 |
| COc1cc(-c2nccc3nc(Nc4ccc5[nH]ccc5c4)nn23)cc(OC)c1OC |  |  | 81 | 20 | 36 | 131 | 8800 | 90 | 96 |  |  |  | 352 |

The next lines start with results.

| IC50 [3] [nM] | Activity [4] | IC50 [5] [nM] | IC50 [7] [nM] | IC50 [8] [nM] | IC50 [9] [nM] | IC50 [10] [nM] | IC50 [11] [nM] | inhibition [12] [%] | IC50 [13] [nM] | SMILES | Ratio IC50 [1] | IC50 [2] [nM] | IC50 [6] [nM] |
| --- | --- | --- | --- | --- | --- | --- | --- | --- | --- | --- | --- | --- | --- |
| 173 | inactive |  |  |  |  |  |  |  |  | CC[C@]1(O)C[C@H]2CN(CCc3c([nH]c4ccccc34)[C@@](C(=O)OC)(c3cc4c(cc3OC)N(C=O)[C@H]3[C@@](O)(C(=O)OC)[C@H](OC(C)=O)[C@]5(CC)C=CCN6CC[C@]43[C@@H]65)C2)C1 [VINCRISTINE] | 16.9 | 2920 |  |
|  |  | > 10000 | 3960 | 1500 | > 10000 |  |  |  |  | COCOc1cc(Nc2nc3ccnc(-c4cc(OC)c(OC)c(OC)c4)n3n2)ccc1OC |  |  | > 10000 |
|  |  | 85 | 23 | 35 | 166 |  |  |  |  | COc1cc(-c2ccnc3nc(Nc4cccc5[nH]ccc45)nn23)cc(OC)c1OC |  |  | 70 |
|  |  | > 10000 | > 10000 | > 10000 | > 10000 |  |  |  |  | COc1cc(-c2nccc3nc(Nc4cccc5ccn(C)c45)nn23)cc(OC)c1OC |  |  | > 10000 |
|  |  | 3940 | 5960 | 3500 | 11300 |  |  |  |  | COc1ccc(-c2ccc3nnc(Nc4cc(OC)c(OC)c(OC)c4)n3c2)cc1O |  |  | 4670 |
|  |  | 996 | > 10000 | > 10000 | > 10000 |  |  |  |  | COc1cc(-c2nccc3nc(Nc4ccc5c(c4)c4ccccc4n5C)nn23)cc(OC)c1OC |  |  | 2120 |
|  |  | 502 | 205 | 363 | 1060 |  |  | 46 |  | COc1ccc(Nc2nc3ccnc(-c4cc(OC)c(OC)c(OC)c4)n3n2)cc1O |  |  | 3150 |
|  |  | 85 | 107 | 256 | 209 |  |  | 29 |  | COc1cc(-c2nccc3nc(Nc4ccc5cc[nH]c5c4)nn23)cc(OC)c1OC |  |  | 610 |
|  |  | 64 | 29 | 72 | 247 |  |  |  |  | COc1cc(-c2cccc3nc(Nc4cccc5[nH]ccc45)nn23)cc(OC)c1OC |  |  | 259 |
|  |  | > 10000 | > 10000 | > 10000 | > 10000 |  |  |  |  | COc1cc(-c2nccc3nc(Nc4ccc5c(c4)[nH]c4ccccc45)nn23)cc(OC)c1OC |  |  | > 10000 |
|  |  | 2400 | 1420 | 951 | 593 |  |  |  |  | COc1ccc(Nc2nc3ccnc(-c4cc(OC)c(OC)c(OC)c4)n3n2)cc1[N+](=O)[O-] |  |  | 5460 |
